{
  "source": "patent US7041701B2",
  "about": "“Triterpenoid derivatives” (Univerzita Palackeho V Olomouci, priority 2000, dated 2006)",
  "key": {"[1]": {"tested_on": "B16 mouse melanoma", "test": "MTT cytotoxicity assay, B16", "assay_type": "cell-based", "details": "72 hours, read-out: TCS50", "description": "(§1) One of the parameters used as the basis for colorimetric assays is the metabolic activity of viable cells. For example, a microtiter assay which uses the tetrazolium salt MTT is now widely used to quantitate cell proliferation and cytotoxicity [Hajdúch M, Mihál V, Minarík J, Fáber E, Safárová M, Weigl E, Antálek P.: Cytotechnology, 1996, 19, 243–245]. For instance, this assay is used in drug screening programs and in chemosensitivity testing. Because tetrazolium salts are cleaved only by metabolically active cells, these assays exclusively detect viable cells. In the case of the MTT assay, yellow soluble tetrazolium salt is reduced to a coloured water-insoluble formazan salt. After it is solubilized, the formazan formed can easily and rapidly be quantified in a conventional ELISA plate reader at 570 nm (maximum absorbancy). The quantity of reduced formazan corresponds to the number of vital cells in the culture. […]\n(§2) The cell suspensions that were prepared and diluted according to the particular cell type and the expected target cell density (2,500–30,000 cells per well based on cell growth characteristics) were added by pipette (80 μl) into 96/well microtiter plates. […] Usually, test compounds were evaluated at six 4-fold dilutions. […] The tumour cell survival (TCS) was calculated using the following equitation: TCS=(ODdrug exposed well/mean ODcontrol wells)×100%. […]"}, "[2]": {"tested_on": "K562-FLUD human promyelocytic leukemia, fludarabin resistant", "test": "MTT cytotoxicity assay, K562-FLUD", "assay_type": "cell-based", "details": "72 hours, read-out: TCS50", "description": "as §1, §2"}, "[3]": {"tested_on": "CEM cells", "test": "Flow cytometry of total DNA content (cell cycle, apoptosis) in CEM cells", "assay_type": "cell-based, human", "procedure": "Hypophosphorylation of Rb protein is accompanied with cell cycle block on the G1/S transition. To investigate whether incubation of tumour cells with betulinines will result in cell cycle block and/or apoptosis, a flow-cytometry study was performed with measurement of total DNA content in CEM cells treated with/without I.3. Taxol (paclitaxel) was used as a positive control, since this drug is known to result in the cumulation of cells in the G2 phase.\nBriefly, CEM cells were cultured in Dulbeco's modified essential medium with 4.5 g dextrose/l, 10% of foetal calf serum, 2 mM glutamine, 100 U/ml penicillin and 100 μg/ml streptomycin with/without the indicated concentrations of paclitaxel or I.3 (FIG. 4A). At selected time points, cells were harvested, washed in ice cold Hank's balanced salt solution (HBSS) and fixed in 70% ethanol at −20° C. overnight. The next day, ethanol was removed by centrifugation, cells were washed twice in HBSS and a cellular pellet (10^6 cells) was reconstituted in staining solution (propidium iodide 60 μg/ml, DNA-se free RNA-se 175 U/ml in HBSS) for 15 minutes at 37° C. The DNA content of individual cells was analyzed on flow cytometer Excalibur (Becton and Dickinson) at excitation wavelength of 488 nm."}, "[4]": {"tested_on": "K562 human promyelocytic leukemia", "test": "MTT cytotoxicity assay, K562", "assay_type": "cell-based", "details": "72 hours, read-out: TCS50", "description": "as §1, §2"}, "[5]": {"tested_on": "HepG2 human hepatocellular carcinoma", "test": "MTT cytotoxicity assay, HepG2", "assay_type": "cell-based", "details": "72 hours, read-out: TCS50", "description": "as §1, §2"}, "[6]": {"tested_on": "A549 lung cancer cells", "test": "Apoptosis morphology by scanning electron microscopy", "assay_type": "cell-based, human", "details": "A549, 2 μM, 12 hours, scanning electron microscopy (FIG. 1)", "description": "To analyse the mechanisms of betulinine-induced cytotoxicity, it is important to distinguish apoptosis from the other major form of cell death, necrosis. Finally, at the tissue level, apoptosis produces little or no inflammation, since shrunken portions of the cell are engulfed by the neighbouring cells, especially macrophages, rather than being released into the extracellular fluid. In contrast, in necrosis, cellular contents are released into the extracellular fluid, and thus have an irritant affect on the nearby cells, causing inflammation. […] Thirdly, at the molecular level, a number of biochemical processes play an important role in the induction of apoptosis. However, the majority of them are not well understood, and they result in activation of proteases and nucleases, which finally destruct key biological macromolecules—proteins and DNA. For the detection of apoptotic versus necrotic modes of cell death, the morphology was assessed by scanning electron microscopy.\nA549 cell line was cultured on tissue culture treated glass coverslips in 6-well culture plates with or without 2 μM concentration of I.3 or betulinic acid at 37° C. and 5% CO2 for 12 hours. Following incubation, the coverslips were washed in Hank's buffered salt solution and processed as described below.\nCells were fixed in 2% glutaraldehyde/PBS overnight at 4° C., dried and covered with gold under vacuum. […]"}, "[7]": {"tested_on": "MCF-7 human breast cancer, estrogen dependent, p53+/+, Rb+/+", "test": "MTT cytotoxicity assay, MCF-7", "assay_type": "cell-based", "details": "72 hours, read-out: TCS50", "description": "as §1, §2"}, "[8]": {"tested_on": "CEM-VCR bulk human T-lymphoblastic leukemia, vincristin resistant", "test": "MTT cytotoxicity assay, CEM-VCR bulk", "assay_type": "cell-based", "details": "72 hours, read-out: TCS50", "description": "as §1, §2"}, "[9]": {"tested_on": "NIH3T3 mouse immortalised fibroblasts", "test": "MTT cytotoxicity assay, NIH3T3", "assay_type": "cell-based", "details": "72 hours, read-out: TCS50", "description": "as §1, §2"}, "[10]": {"tested_on": "human normal lymphocytes", "test": "MTT cytotoxicity assay, normal lymphocytes", "assay_type": "cell-based", "details": "72 hours, read-out: TCS50", "description": "as §1, §2"}, "[11]": {"tested_on": "CEM-DNR 1/C2 human T-lymphoblastic leukemia, daunorubicin resistant", "test": "MTT cytotoxicity assay, CEM-DNR 1/C2", "assay_type": "cell-based", "details": "72 hours, read-out: TCS50", "description": "as §1, §2"}, "[12]": {"tested_on": "U2OS human osteosarcoma, p53+/−, Rb+/−", "test": "MTT cytotoxicity assay, U2OS", "assay_type": "cell-based", "details": "72 hours, read-out: TCS50", "description": "as §1, §2"}, "[13]": {"tested_on": "A549 human lung adenocarcinoma", "test": "MTT cytotoxicity assay, A549", "assay_type": "cell-based", "details": "72 hours, read-out: TCS50", "description": "as §1, §2"}, "[14]": {"tested_on": "B16F mouse melanoma, metastatic", "test": "MTT cytotoxicity assay, B16F", "assay_type": "cell-based", "details": "72 hours, read-out: TCS50", "description": "as §1, §2"}},
  "data": [
    {"compound": "CC(=O)OC[C@@]1(C(=O)O)CC[C@]2(C)[C@H](CC[C@@H]3[C@@]4(C)CC[C@H](OC(C)=O)C(C)(C)[C@@H]4CC[C@]32C)C1=O", "note": "[I.3, 3β,28-diacetoxy-18-oxo-19,20,21,29,30-pentanorlupan-22-oic acid]", "values": [
      {"measurement": "IC50", "setting": "[1]", "value": 2.1, "unit": "µM"},
      {"measurement": "IC50", "setting": "[2]", "value": 0.4, "unit": "µM"},
      {"measurement": "cell cycle distribution", "setting": "[3]; propidium iodide flow cytometry (FIG. 4A)", "value": "induces cumulation of cells in G0/G1 phases"},
      {"measurement": "induction of apoptosis (sub-G1 cells)", "setting": "[3]; propidium iodide flow cytometry (FIG. 4B)", "value": "rapid apoptosis"},
      {"measurement": "IC50", "setting": "[4]", "value": 0.2, "unit": "µM"},
      {"measurement": "IC50", "setting": "[5]", "value": 1.7, "unit": "µM"},
      {"measurement": "morphologic markers of apoptosis", "setting": "[6]", "value": "cytoplasmatic blebbing, cellular fragmentation and formation of apoptotic bodies"},
      {"measurement": "IC50", "setting": "[7]", "value": 2.3, "unit": "µM"},
      {"measurement": "IC50", "setting": "[8]", "value": 2.5, "unit": "µM"},
      {"measurement": "IC50", "setting": "[9]", "value": 7.2, "unit": "µM"},
      {"measurement": "IC50", "setting": "[10]", "value": 13, "unit": "µM"},
      {"measurement": "IC50", "setting": "[11]", "value": 0.6, "unit": "µM"},
      {"measurement": "IC50", "setting": "[12]", "value": 1.5, "unit": "µM"},
      {"measurement": "IC50", "setting": "[13]", "value": 1, "unit": "µM"},
      {"measurement": "IC50", "setting": "[14]", "value": 4.7, "unit": "µM"}
    ]}
  ]
}
